# In US20090041753A1, “Cytokine signaling” (priority 2006, published 2009):
# System: purified astrocyte cultures
# Test: CXCL1 addition to purified spinal cord astrocyte cultures, CSPG by immunocytochemistry and dot blot
# Type: cell-based
# Details: CXCL1 0.5 ng/ml, 3 days
# Description: Cells were treated with CXCL1 (0.5 ng/ml) for 3 days and assayed for CSPG deposition onto substrate by immunocytochemistry and released into medium. […] GFAP (red), CSPG (green) (FIG. 34) For the culture studies, cultures of spinal cord astrocytes were assayed for basal levels of mRNA expression of CXCL1 and CXCR2 by RT-PCR (FIG. 33). The effect of 3 day CXCL1 protein addition (0.5 ng/ml) on CSPG protein expression was conducted on spinal cord astrocyte cultures as well as by immunocytochemistry and dot blot assays to analyze secreted and bound CSPG (FIG. 34).
substance,measurement,value
CXCL1: soluble secreted chemoattractive cytokine of the ELR positive family of CXC chemokines; preferred receptor CXCR2,"CSPG expression (deposition onto substrate, immunocytochemistry)",induces CSPG expression
same,CSPG released into medium (dot blot),increased CSPG
same,astrocyte morphology,changes morphology
